Data set [1] concerns Mouse endothelial cells from pancreas. Briefly: sensitivity of pancreas endothelial cells to Taxotere cytotoxicity. It counts as cell-based. The note with it: with Taxotere; for sensitivity of endothelial cells to cytotoxicity mediated by Taxotere: cells at 33° C. As to the method: Mouse endothelial cells from pancreas are maintained in culture at a temperature 33° C. where they are actively dividing.

For the next data set, the system named is L3.6 pL pancreatic tumor. Briefly: orthotopic human pancreatic cancer L3.6 pL in nude mice. It counts as in vivo. The note with it: combination with Taxotere; for survival rate: 4-6 weeks; for effect of the combination in cancer refractory to chemotherapy: tumor cells resistant to Taxotere (MDR cells). As to the method:
A pancreatic tumor which is shown to upregulate expression of PDGF AA, BB, A/B at metastatic sites is used for the in vivo studies. Other tumor systems that are known to upregulate expression of PDGF may also be used such as ovarian cancer, prostate cancer, bone metastasis, or breast cancer bone metastasis.
Tumor cells L3.6 pL derived from pancreatic cancer are injected into the pancreas of nude mice. The tumors are grown into detectable lesions.
Two days later, the mice are killed and the organs with and without tumors harvested, fixed, and immunostained to evaluate expression of PDGF AA, BB, A/B, PDGF-R (α,β) and status of phosphorylation of PDGF-R (α,β) on tumor cells and organ-specific endothelial cells.
The surviving mice are then killed and the size of tumor and metastasis is measured. Fixation of the tissues and staining of the tumor cells are performed. Endothelial cells are examined for division (PCNA), apoptosis (TUNEL), CD31 (endothelial cells). Expression of PDGF AA, BB, A/B, and phosphorylation of PDGF-Rα/β are further studied in these endothelial cells.

In the next data set the test system is MV4;11 cells. Briefly: intravenous MV4;11 leukemia model in NOD-SCID mice. Particulars: for large infiltrating cells with mitotic figures in bone marrow: H&E-stained sections; for large infiltrating cells with mitotic figures in bone marrow / CD45 positive cells in bone marrow: oral 50-200 mg/kg; for CD45 positive cells in bone marrow: flow cytometry; for survival: oral, 50-200 mg/kg, once daily or 3 times per week. The format is in vivo. As to the method:
In a subset of animals, bone marrow cell suspensions are prepared by flushing mouse femurs with cold sterile PBS, at experimental timepoints (within 90 days of implantation).

Another data set relates to accelerated phase CML. Particulars: at 24 months; cited from earlier work.
The subject of data set [2] is blastic phase chronic myelogenous leukemia (CML). Particulars: two trials, total of 304 patients; cited from earlier work.
For the next data set, the target named is FYN (Homo sapiens, UniProt P06241). The note with it: literature; cited from earlier work.
The target in the next data set is T1, Lck (Homo sapiens, UniProt P06239).
T1 construct: host or cells: baculovirus system
The note with it: literature; cited from earlier work.

Data set [3] concerns RS4-11 cells (FLT3-wild type). Briefly: RS4-11 cell growth, luminescence assay at 72 hours. The note with it: with or without 100 ng/mL FLT3 ligand, FIGS. 5 and 6. It counts as cell-based, human.
Data set [4] deals with AML193 cells (wild type FLT3). Briefly: AML193 cell growth, luminescence assay at 72 hours. The note with it: with or without 100 ng/mL FLT3 ligand, GN963 at concentrations used (30 μM), FIGS. 3 and 4.

Counter-ions that a name gives are not always drawn.

FYN, sequence (P06241 whole entry, species assumed): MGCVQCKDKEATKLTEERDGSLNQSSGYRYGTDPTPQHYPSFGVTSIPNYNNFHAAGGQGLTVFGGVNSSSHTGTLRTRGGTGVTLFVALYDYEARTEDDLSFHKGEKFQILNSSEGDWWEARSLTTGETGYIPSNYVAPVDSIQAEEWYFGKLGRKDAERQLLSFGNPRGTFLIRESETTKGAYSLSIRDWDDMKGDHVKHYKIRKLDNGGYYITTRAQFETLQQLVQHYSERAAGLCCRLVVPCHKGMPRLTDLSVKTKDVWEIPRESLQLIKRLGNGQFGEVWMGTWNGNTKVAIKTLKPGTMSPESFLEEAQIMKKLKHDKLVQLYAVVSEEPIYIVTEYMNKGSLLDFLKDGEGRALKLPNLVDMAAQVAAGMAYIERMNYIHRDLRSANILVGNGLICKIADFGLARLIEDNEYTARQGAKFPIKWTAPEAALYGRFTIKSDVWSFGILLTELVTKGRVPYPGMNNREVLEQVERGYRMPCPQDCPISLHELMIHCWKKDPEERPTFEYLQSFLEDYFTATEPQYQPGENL
T1 sequence (P06239 whole entry): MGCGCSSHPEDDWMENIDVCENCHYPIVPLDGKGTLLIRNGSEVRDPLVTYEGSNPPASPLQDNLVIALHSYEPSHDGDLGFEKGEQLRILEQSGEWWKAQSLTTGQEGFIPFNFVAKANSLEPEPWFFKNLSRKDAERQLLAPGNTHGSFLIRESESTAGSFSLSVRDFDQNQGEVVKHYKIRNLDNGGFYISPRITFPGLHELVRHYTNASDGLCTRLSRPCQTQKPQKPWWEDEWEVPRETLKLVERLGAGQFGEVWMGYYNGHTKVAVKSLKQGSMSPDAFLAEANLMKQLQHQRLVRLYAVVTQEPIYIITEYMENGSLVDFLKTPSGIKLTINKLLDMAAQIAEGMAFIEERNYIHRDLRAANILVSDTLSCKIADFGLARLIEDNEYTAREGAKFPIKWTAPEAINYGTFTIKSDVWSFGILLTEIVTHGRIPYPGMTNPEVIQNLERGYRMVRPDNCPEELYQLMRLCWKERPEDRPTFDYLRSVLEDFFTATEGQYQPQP

Usually melting point stands for the temperature of the solid-liquid transition. Consider `CC(C)Oc1ccc2nc(Nc3ccccc3)cnc2c1.Cl`, for which the melting point was 205 to 210 °C (dec.).

As to `COc1cc2ncc(CNC3CCCCC3)nc2cc1OC` (as salt: HCl) [Example 7, Cyclohexyl-(6,7-dimethoxyquinoxalin-2-ylmethyl)-amine], the melting point was 185 to 190 °C (dec.).

For the molecule `COc1cc2ncc(N[C@@H]3CC[C@@H](O)[C@H](C)C3)nc2cc1OC` (stereo in doubt) [GN271, (1R,2R,4R)-4-(6,7-dimethoxy-quinoxalin-2-ylamino)-2-methyl-cyclohexanol], in data set [1], the “resistance of organ-specific endothelial cells to Taxotere increased by pancreatic tumor-conditioned medium” value is given as “reversal of this increased resistance” and the “sensitivity of endothelial cells to cytotoxicity mediated by Taxotere” value is recorded as “increases sensitivity of endothelial cells to cytotoxicity mediated by Taxotere”. In the data set on L3.6 pL pancreatic tumor, the survival rate entry was “higher survival rate” and the “effect of the combination in cancer refractory to chemotherapy” value is on record as “synergistic effect”. In addition, in the data set with MV4;11 cells, the “large infiltrating cells with mitotic figures in bone marrow” value is “reduced numbers of large infiltrating cells with mitotic figures”, the “CD45 positive cells in bone marrow” value was “reduced numbers of CD45 positive cells” and the survival result is recorded as “prolonged survival”.

`Oc1ccc2nc(Nc3ccccc3)cnc2c1` [Example 4, 2-Anilino-6-quinoxalinol] displayed a melting point of 211 to 213 °C.

The molecule `c1ccc(Nc2cnc3cc(O[C@@H]4CCOC4)ccc3n2)cc1` [Example 5, Phenyl-[6-(tetrahydrofuran-3-(R)-yl-oxy)quinoxalin-2-yl]amine] came in with a melting point of 173 to 175 °C.

`COc1cc2ncc(OC3CCCCC3)nc2cc1OC1CCCCC1` [Example 6, 2,7-Bis-cyclohexyloxy-6-methoxy-quinoxaline] showed a melting point of 75 to 78 °C.

Take `COc1cc2cc(NCC(C)(C)CO)cnc2cc1OC` [Example 9, 3-(6,7-Dimethoxyquinolin-3-yl-amino)-2,2-dimethyl-propan-1-ol]: the melting point was in the range of 170 to 173.5 °C.

The molecule `COc1cc2ncc(NC3CCCCC3)nc2cc1N1CCOCC1` [Example 10, Cyclohexyl-(6-methoxy-7-morpholin-4-yl-quinoxalin-2-yl)-amine] returned a melting point of 194 to 196 °C.

Regarding `COc1cc2ncc(OC3CC4CC3C(O)C4O)nc2cc1OC` (centres unmarked) [Example 17, 5-(6,7-Dimethoxyquinoxalin-2-yloxy)-bicyclo [2.2.1]heptane-2,3-diol], the melting point lay in the range of 85 to 88 °C.

The molecule `COc1cc2ncc(OC3CCC(OC(=O)N(C)C)CC3)nc2cc1OC` (centres unmarked) [Example 19, Dimethyl-carbamic acid 4-(6,7-dimethoxyquinoxalin-2-yloxy)-cyclohexyl ester] showed a melting point of 152 to 155 °C.

Molecule `COc1cc2ncc(N[C@H]3CC[C@H](OC(C)=O)CC3)nc2cc1OC` [Example 21, Acetic acid trans-4-(6,7-dimethoxyquinoxalin-2-ylamino)-cyclohexyl ester] came in with a melting point of 176 to 177 °C.

`COc1cc2ncc(N[C@@H]3C[C@H]4CC[C@@H]3C4)nc2cc1OC` [Example 25, (1R,2R,4S)-(+)-Bicyclo[2.2.1]hept-2-yl-(6,7-dimethoxyquinoxalin-2-yl)-amine] yielded a melting point of 184 to 186 °C.

As for `COc1cc2ncc(N[C@@H]3C[C@@H]4C[C@H]3C[C@H]4O)nc2cc1OC` [GN804, (1S,2R,4S,5R)-5-(6,7-Dimethoxyquinoxalin-2-ylamino)-Bicyclo[2.2.1]heptan-2-ol], in [1], the “resistance of organ-specific endothelial cells to Taxotere increased by pancreatic tumor-conditioned medium” value is listed as “reversal of this increased resistance” and the “sensitivity of endothelial cells to cytotoxicity mediated by Taxotere” value is “increases sensitivity of endothelial cells to cytotoxicity mediated by Taxotere”. Also, in the data set on L3.6 pL pancreatic tumor, the survival rate entry is on record as “higher survival rate” and the “effect of the combination in cancer refractory to chemotherapy” value is reported as “synergistic effect”. In the data set on MV4;11 cells, the “large infiltrating cells with mitotic figures in bone marrow” value was “reduced numbers of large infiltrating cells with mitotic figures”, the “CD45 positive cells in bone marrow” value was “reduced numbers of CD45 positive cells” and the survival result was “prolonged survival”.

Take `Cc1ccc(NC(=O)c2ccc(CN3CCN(C)CC3)cc2)cc1Nc1nccc(-c2cccnc2)n1` [Gleevec, imatinib mesylate]: in the data set with accelerated phase CML, the “incidence of disease progression” value is listed as 50%. Moreover, in data set [2], the “estimated 1-year survival” value is listed as “under 35%” and the “major cytogenetic response rate” value is 16%.

As for `Cc1ccc(-c2nn(C(C)(C)C)c3ncnc(N)c23)cc1` [PP1], the FYN inhibitory potency entry at FYN is “low nanomolar potency”. For the same molecule, the LCK inhibitory potency result on Lck is “low nanomolar potency”.

For the molecule `CN[C@@H]1C[C@H]2O[C@@](C)([C@@H]1OC)n1c3ccccc3c3c4c(c5c6ccccc6n2c5c31)C(=O)NC4` [staurosporine, reference compound], the “effect on RS4-11 cell growth” value in data set [3] is listed as “inhibits RS4-11 cell growth”. Also, the “effect on AML193 cell growth” value in data set [4] is “inhibits AML193 cell growth”.

These data come from patent publication US20070197538A1, “Anti-vascular and anti-proliferation methods, therapies, and combinations employing specific tyrosine kinase inhibitors” (priority 2004, published 2007).
